The values below are quoted from earlier work in patent publication US20090306403A1, “Production Process for Bicyclic Tetrahydropyrrole Compounds” (priority 2006, published 2009).

In one data set the target is sigma (σ-2) site (Homo sapiens, UniProt Q5BJF2). Particulars: background statement in words.
For another data set, the target named is sigma 1 (σ-1) site (Homo sapiens, UniProt Q99720). Conditions: background statement in words.
Sequence of sigma 1 (σ-1) site (Q99720 whole entry): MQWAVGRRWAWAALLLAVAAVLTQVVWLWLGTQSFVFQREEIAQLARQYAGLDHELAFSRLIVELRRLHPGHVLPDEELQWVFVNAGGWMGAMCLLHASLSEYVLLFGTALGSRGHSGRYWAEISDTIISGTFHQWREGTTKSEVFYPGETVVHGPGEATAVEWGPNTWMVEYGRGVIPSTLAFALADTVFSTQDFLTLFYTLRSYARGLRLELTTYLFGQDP

Sequence of sigma (σ-2) site (Q5BJF2 whole entry): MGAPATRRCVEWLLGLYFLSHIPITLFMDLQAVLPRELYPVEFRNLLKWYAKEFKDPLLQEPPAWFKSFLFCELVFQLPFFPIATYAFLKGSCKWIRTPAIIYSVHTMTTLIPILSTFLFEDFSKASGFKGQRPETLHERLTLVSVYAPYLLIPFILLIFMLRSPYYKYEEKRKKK

As to SKF 10047, at sigma (σ-2) site, the “affinity for the sigma (σ-2) site” value is listed as “micromolar affinity”. Also, the “affinity for the sigma 1 (σ-1) site” value at sigma 1 (σ-1) site is reported as “nanomolar affinity”.
